Data as given in PMC7215935, “GM1 Oligosaccharide Crosses the Human Blood–Brain Barrier In Vitro by a Paracellular Route” (International Journal of Molecular Sciences, 2020).
One block for each compound: values may come before it.

How the values were obtained:
[1] = cited from earlier work
hBLECs [2] = assay: Toxicity on hBLECs / monolayer integrity by LY permeability in combination with test substance; format: cell-based, human
Method: (§1) Prior to the experiments, in order to verify the hBLECs’ monolayer integrity and stability, the permeability parameters were verified as previously reported. Briefly, 1.5 mL Ringer–Hepes solution (RH) (150 mM NaCl, 5.2 mM KCl, 2.2 mM CaCl2, 0.2 mM MgCl26H2O, 6 mM NaHCO3, 5 mM HEPES, pH: 7.4) was added to empty wells of a 12-well plate. Filter insert containing confluent monolayers of hBLECs or not (control) were subsequently placed in the 12-well plate, filled with 0.5 mL RH buffer containing the fluorescent integrity marker LY (50 μM), and then placed on an orbital shaker (150 rpm, Heidolph Titramax 100) at 37 °C in a humidify atmosphere of 95% air/5% CO2. Every 20 min for 1 h, filter inserts were withdrawn from the receiver compartment and placed in the next one. To verify the quantity of LY, at the end of the experiments, aliquots from the donor solution were taken at the end of the experiments and the fluorescence was quantified using a quantification curve of LY as referee. At least three inserts with cells and three without cells were tested in each permeability measurement. The fluorescence was measured using a luminescence spectrometer (LS 50B, Perkin Elmer), using the following excitation/emission wavelength (nm) settings: 432/538. Pe parameters were calculated according to the formulas shown in the Supplementary Information (Equations (7)–(10)). In parallel, as positive control for breakdown of hBLECs, D-mannitol, was used at a concentration of 1.4 M. At this concentration, mannitol induces an osmotic shock, and thus an increase in paracellular permeability.
To evaluate the toxicity of GM1 and OligoGM1, the LY endothelial permeability (Pe) and apparent permeability (Papp) were considered for evaluation of hBLEC monolayer integrity after administration of compounds.
To examine the LY permeability, 1.5 mL of RH buffer was added to empty wells of a 12-well plate, then hBLEC filters were placed in the 12-well plate and filled with 0.5 mL RH buffer containing 50 μΜ LY plus OligoGM1 or GM1 at an appropriate test concentration (from 5 to 300 μΜ). The hBLEC inserts were moved every 20 min to a new RH-filled well up to 60 min. At the end of the incubation period, solutions were collected from apical and basolateral compartments, LY was quantified, and Papp was calculated as reported in the Supplementary Information (Equation (1)) and previously mentioned.

[3] = test system: human brain-like endothelial cells (hBLECs); assay: Direct transport (apical to basolateral, A → B) across the hBLEC monolayer: Pe and Papp; format: in vitro ADME; details: for endothelial permeability Pe (A → B): after 60 min, hBLEC monolayer
Method: as §1
Transport experiments were carried out by adding tritium-labeled GM1 or OligoGM1 (1 × 10^6 dpm) to cold GM1 or OligoGM1, respectively, at different concentrations, as specified below.
To identify and quantify the GM1 or OligoGM1 molecules in every transport experiment, aliquots from apical A (5 μL) and basolateral B (200 μL) compartments were collected at indicated time points and combined with 5 mL of ULTIMA GOLD liquid (PerkinElmer), shaken, and counted for 20 min by liquid scintillation analyzer (TRI-CARB 2100TR, Packard). Resulting radioactivity measures were used to estimate the quantity of the molecules. Experiments were performed on an agitation plate at 37 °C (150 rpm, Heidolph Titramax 100) in a humidify atmosphere of 95% air/5% CO2. At least three inserts with cells were tested in each transport experiment for each condition.
To examine flux from apical to basolateral compartments (A → B), 1.5 mL RH buffer was added to empty wells of a 12-well plate. Following this, the hBLEC filter was placed in the same 12-well plate and filled with 0.5 mL RH buffer containing 1 × 10^6 dpm of tritiated [^3H]GM1 or [^3H]OligoGM1 plus 50 μM of cold GM1 or OligoGM1 (Figure S3b).
To establish the time dependence of the transport experiments, hBLEC inserts filled with OligoGM1 were transferred into a new receiver well plate filled with fresh RH buffer every 20 min up to 240 min. The hBLECs’ properties, integrity, and stability were maintained up to 240 min in the transport experiments with RH buffer in the upper and basolateral side (see [28] and Figure S4).
To establish the dose dependence in the transport experiments, 1 × 10^6 dpm of tritiated [^3H]OligoGM1 plus 5, 10, 50, 100, and 300 μM OligoGM1 solutions were prepared and employed as described above. The hBLECs inserts were transferred into a new RH-filled receiver well plate every 20 min up to 60 min. […]
To evaluate the possible active transport involvement, the transport of OligoGM1 from apical to basolateral (A → B) compartments was performed at 4 °C, with the aim of inhibiting the active transport mechanism at low temperature. […]

MRPs = assay: ABC transporter competition assay (Caco-2 pump out), CMFDA efflux; details: Caco-2 cells, positive control
Method: Briefly, Caco-2 cells in 96-well plates were washed once with RH buffer and incubated for 120 min with 10 µM R123 or for 15 min with 0.5 µM CMFDA. R123 and CMFD are substrates for the major efflux pumps expressed by BBB and intestine cells, i.e., P-gp/BCRP and MRPs, respectively. After the incubation period, Caco-2 cells were washed twice with RH buffer with or without test compounds (OligoGM1 at 10, 50, and 100 µM). The rate out (Kout) of Caco-2 cells for fluorescent dyes was monitored by fluorescence measurement (λex = 501 nm and λem = 538 nm for R123; λex = 485 nm and λem = 538 nm for CMFDA) using a microplate fluorescent reader (BioTek, H1, Vermont, Winooski). The amount of dye expelled from the cells was measured at 37 °C and every 5 min for one hour for R123 and every 2 min for 30 min for CMFDA. The rate out of the dye from cells was calculated as the slope of the curve of the cumulative amount of dye against the time (Kout = ∆pmol⁄∆t) and compared with the value in the presence of test compounds.

[4] = test system: human brain-like endothelial cells (hBLECs); assay: Inverse transport (basolateral to apical, B → A) across hBLECs and efflux ratio; format: in vitro ADME
Method: For the inverse transport study (related to basolateral → apical flux, B → A), 1.5 mL of 1 × 10^6 dpm of tritiated [^3H]OligoGM1 plus 50 μM OligoGM1 in RH buffer were added to an empty well of a 12-well plate (Figure S3c). Every 20 min up to 60 min, the hBLEC filter filled with 0.5 mL RH buffer was removed and replaced with a new filter with fresh RH buffer.
The apparent permeability, efflux ratio, and endothelial permeability were calculated to estimate the absorption processes of drugs, to predict implication of active transport in the process of drugs absorption, and to more accurately appreciate the transport of a drug across an endothelial barrier, respectively. Detailed information on the equations used to calculate the permeability parameters are reported in the Supplementary Information. […]
where (∆Q/∆t) (μmol/sec) is the rate of permeation (quantity per second) of a molecule across the cell layer, C0 (μmol/cm3) is the donor compartment concentration at time zero and S (cm2) is the area of […]
In the transwell insert system there are two compartments and, analyzing the absorption of a substance, the apparent permeability index can be obtained for the apical to basolateral transport, Papp A → B, and for the inverse, basolateral to apical transport Papp B → A.
To define Papp (1), the Fick's law could be used, which describes the transport of substances through a semipermeable membrane. Given that the initial concentration of the solute in the donor compartment is much higher than the one in the receiver compartment (equal to 0 at t0), and assuming that the solute equally partitions in the two compartments, for small variation of C0, it is possible to integrate and simplify the Fick’s equation to obtain as follows: […]
where ∆Q/∆t corresponds to the amount of solute that crosses the membrane over time, D is the diffusion coefficient of the substance in water, S is the membrane surface, h its thickness and C0 is the concentration of the solute which approximates the initial concentration C0.
The equation (2) can be rewritten as: […]

hBLECs [5] = assay: Fate of OligoGM1 in hBLECs (cell-associated radioactivity); format: in vitro ADME, human
Method: The possible internalization of OligoGM1 in hBLECs was determined by measuring the radioactivity associated to the cells. Briefly, at the end of direct transport, apical and basolateral solutions were collected, hBLEC filters were washed with RH buffer, and cells were detached by trypsin and lysed with 1mM Na3VO4, 1 mM PMSF, 2% (v/v) aprotinin, and 1% (v/v) IP in cold PBS. At this point, the lysed cell solution was counted to measure the radioactivity. All the cell lysates were combined with 5 mL of ULTIMA GOLD liquid (PerkinElmer), shaken, and counted for 20 min by liquid scintillation analyzer (TRI-CARB 2100TR, Packard). The resulting dpm radioactivity measures were used to estimate the molecule quantity.

hBLECs [6] = assay: Metabolic integrity of OligoGM1 after hBLEC transport (HPTLC autoradiography); format: in vitro ADME, human; details: basolateral compartment, detection limit 15 dpm
Description: Since OligoGM1 is tritium labeled at position 6 of the external galactose, any possible galactosidase activity present on the plasma membrane of hBLECs can result in external galactose removal, leading to loss of radioactivity from the penta-saccharide. Radiolabeled galactose may pass the BBB or may enter into the cells and be recycled for the biosynthesis of new glycans, so that the radioactivity found may correspond to the galactose or to any possible new glycan rather than to the original oligosaccharide.
Thus, to test the integrity of the OligoGM1 molecule after hBLEC crossing, OligoGM1 solution was prepared in RH buffer at a final concentration of 100 μM plus 1 × 10^6 dpm of tritium-labeled OligoGM1. For the apical–basolateral transport experiment, the hBLEC insert’s apical side was filled with 0.5 mL of the drug solution and placed on 1.5 mL RH buffer-filled well of a 12-well plate. After 60 min, the solution of the receiving compartment (about 1.5 mL) was collected and 200 μL were combined with 5 mL of ULTIMA GOLD liquid (PerkinElmer), shaken, and counted for 20 min by a liquid scintillation analyzer (TRI-CARB 2100TR, Packard).
To verify that the counted radioactivity indeed corresponded to [^3H]OligoGM1, 0.5 mL of receiving compartment solution was lyophilized and suspended in 0.5 mL of methanol. […]

[7] = 1.4 M, osmotic shock, positive control for leakage

Compound: 6′-R-maltosyl-maltotrioside
- hydrodynamic radius (r) [1]: 8.7 Å

Compound: OC[C@@H](O)[C@@H](O)[C@H](O)[C@H](O)CO [D-mannitol]
- rise of LY Papp on co-incubation (hBLECs [2]; [7]): 4 fold
- rise of LY Pe on co-incubation (hBLECs [2]; [7]): 20 fold

- endothelial permeability Pe (A → B) ([3]; 50 μM): 0.028 ± 0.007 ×10^−3 cm/min
Compound: CCCCCCCCCCCCCC=CC(O)C(COC1OC(CO)C(OC2OC(CO)C(OC3OC(CO)C(O)C(OC4OC(CO)C(O)C(O)C4O)C3NC(C)=O)C(OC3(C(=O)O)CC(O)C(NC(C)=O)C(C(O)C(O)CO)O3)C2O)C(O)C1O)NC(=O)CCCCCCCCCCCCCCCCC (stereo not drawn) [GM1, β-Gal-(1-3)-β-GalNAc-(1-4)-[α-Neu5Ac-(2-3)]-β-Gal-(1-4)-β-Glc-(1-1)-Cer, reference compound]
- effect on LY Pe and Papp (toxicity to hBLECs) (hBLECs [2]; 10, 50, 100 and 300 μM with 50 μM LY, 60 min and over time (20, 40, 60 min)): no variations of LY Pe and Papp were observed

Compound: CN(C)C(=O)CCSC(SCCC(=O)O)c1cccc(/C=C/c2ccc3ccc(Cl)cc3n2)c1 (centres unmarked) [MK571, reference compound]
- decrease of outgoing rate (Kout) of CMFDA (MRPs): more than 30%

Compound: OC[C@H]1O[C@H](OC[C@H]2O[C@H](OC[C@H]3O[C@H](O[C@]4(CO)O[C@H](CO)[C@@H](O)[C@@H]4O)[C@H](O)[C@@H](O)[C@@H]3O)[C@H](O)[C@@H](O)[C@H]2O)[C@H](O)[C@@H](O)[C@H]1O [stachyose]
- hydrodynamic radius (r) [1]: 6.5 Å

- apparent permeability Papp (A → B) of LY alone ([3]; 50 μM LY, hBLEC integrity check (Figure 2)): 1.25 ± 0.123 ×10^−5 cm/s
- Papp A>B at 4 °C ([3]; 50 μM, 60 min, 4 °C (Figure 6d)): 1.04 ± 0.068 x 10^-5 cm/sec
- Papp A>B at 37 °C ([3]; 50 μM, 60 min, 37 °C, temperature experiment (Figure 6d)): 1.27 ± 0.072 x 10^-5 cm/sec
- endothelial permeability Pe (A → B) ([3]; 50 μM): 0.65 ± 0.041 ×10^−3 cm/min
- Papp B>A ([4]; 50 μM in basolateral compartment, 60 min (Figure 7)): 1.59 ± 0.27 x 10^-5 cm/sec
- Efflux Ratio (E) = Papp B>A / Papp A>B ([4]; 50 μM, 60 min, hBLECs): 1.25
Compound: Lucifer yellow [LY, reference compound]
- hydrodynamic radius (r) [1]: 4.9 Å

- amount found within the cells (internalization) (hBLECs [5]; 50 μM apical, 20, 40, 60, 240 min, cell lysate): no detectable amount
- radioactivity associated with apical and basolateral solutions (hBLECs [5]; 50 μM apical, each time point 20, 40, 60, 240 min): about 99%
- metabolic stability after hBLEC crossing (hBLECs [6]): metabolically stable
Compound: [6-^3H]β-Gal-(1-3)-β-GalNAc-(1-4)-[α-Neu5Ac-(2-3)]-β-Gal-(1-4)-β-Glc-Cer [[^3H]OligoGM1]
